For data set [1], the system named is buffaloes. The data set can be described thus: Example 3: vinegar, dilute acetic acid or acidified sodium acetate, no control group, buffaloes. As to the method: (§1) The first study was conducted in a population primarily comprising cows and buffaloes. […] Equal number of animals were used in the standard/control group for comparison. The animals were in the study group were allowed to undergo one insemination. Thereafter, i.e. within 35-50 minutes, the material prepared according to the process described in Example 1 was administered to the animals in the study group. The animals in the control/standard group were not subject to administration of any material. Mating or insemination was not controlled. All the animals were allowed to move freely in their usual environment and were kept on normal diet. Their behavior and temperature/temperament especially of the study group. was monitored.
(§2) These animals were administered vinegar, dilute acetic acid, and sodium acetate solution in acidic pH separately.

Data set [2] deals with cows and buffaloes. The data set can be described thus: Example 3: totals for cows and buffaloes together. As for the experimental part: as §1, §2
In data set [3] the test system is cows. The data set can be described thus: Example 3: vinegar, dilute acetic acid or acidified sodium acetate, no control group, cows. As for the experimental part: as §1, §2

We go through two compounds from patent US7351581B2, “In vivo method for producing female offsprings in bovines” (priority 2000, dated 2008).

Each structure is given as a SMILES string.

Turning to `CC(=O)O` [Acetic Acid dilute, acetic acid], in data set [1], the Animals not conceived is 3, the “No. of Miscarriages” value is “Nil”, the “OFFSPRING Females” value came to 11 and the “OFFSPRING Males” value is reported as “Nil”. Also, in data set [2] (cows and buffaloes together), the female offsprings delivered was determined as 17 and the “share of female offsprings” value came out at 100%. In addition, the “animals that did not conceive” value in data set [2] (female, cows and buffaloes, in vivo) was 5. The “animals that reported miscarriage” value in data set [2] (in vivo) is on record as “no animals reported miscarriage”. In data set [3] (cows, no control group), the “OFFSPRING Females” value is 6 and the “OFFSPRING Males” value is on record as “Nil”. The compound further showed an Animals not conceived in data set [3] (female, cows, in vivo) of 2. Further, in data set [3] (in vivo), the “No. of Miscarriages” value was “Nil”.

With `CC(=O)[O-].[Na+]` [Sodium Acetate Acidified, sodium acetate], in data set [1], the Animals not conceived is on record as 2, the “No. of Miscarriages” value is listed as “Nil”, the “OFFSPRING Females” value is on record as 8 and the “OFFSPRING Males” value is reported as “Nil”. For the same compound, in data set [2] (cows and buffaloes together), the “animals that did not conceive” value is listed as 3, the female offsprings delivered is given as 12 and the “share of female offsprings” value turned out to be 100%. Also, in data set [3] (cows, no control group), the Animals not conceived is on record as 1, the “No. of Miscarriages” value is reported as “Nil”, the “OFFSPRING Females” value is on record as 4 and the “OFFSPRING Males” value is listed as “Nil”.
